Experimental data: article PMC7926793, “Synthesis and Biological Evaluation of 1-(Diarylmethyl)-1H-1,2,4-triazoles and 1-(Diarylmethyl)-1H-imidazoles as a Novel Class of Anti-Mitotic Agent for Activity in Breast Cancer” (Pharmaceuticals, 2021)

Test system: MCF-7 cells
Test: Annexin V/PI apoptotic assay
Type: cell-based, human
Settings: 48 h
Description: Apoptotic cell death was detected by flow cytometry using Annexin V and propidium iodide (PI). MCF-7 and MDA-MB-231 cells were seeded in 6-well plates at a density of 1 × 10^5 cells/mL (3 mL) and treated with either vehicle (0.1% (v/v) EtOH), Phenstatin (7a), or 21l at different concentrations for the selected time. Then, cells were harvested and prepared for flow cytometric analysis. […] Then, cells were washed once in binding buffer and then re-suspended in PI-containing binding buffer (1:1000). […] Four populations are produced during the assay: Annexin V and PI negative (Q4, healthy cells), Annexin V positive and PI negative (Q3, early apoptosis), Annexin V and PI positive (Q2, late apoptosis), and Annexin V negative and PI positive (Q1, necrosis).

COc1ccc(C(c2cc(OC)c(OC)c(OC)c2)n2ccnc2)cc1O (stereo not drawn) [21l, 5-((1H-Imidazol-1-yl)(3,4,5-Trimethoxyphenyl)Methyl)-2-Methoxyphenol]
viability at 0.1 µM (Homo sapiens, MCF7, MCF-7, 0.1 μM, Figure 9A, read-out: Viable): 85.4%
viability at 0.5 µM (Homo sapiens, MCF7, MCF-7, 0.5 μM, Figure 9A, read-out: Viable): 81.9%
viability at 1 µM (Homo sapiens, MCF7, MCF-7, 1 μM, Figure 9A): 79.4%
Annexin V-stained positive cells (total apoptotic cells) (MCF-7, 0.1 μM): 14.1%
Annexin V-stained positive cells (total apoptotic cells) (MCF-7, 0.5 μM): 17.5%
Annexin V-stained positive cells (total apoptotic cells) (MCF-7, 1 μM): 19.3%
